In brackets after ≈: the same amount, converted by molar mass. Where a SMILES comes first, the peptide text is derived from it. Bridges are numbered along the chain shown (N, C = ends).

In assay [1] the test system is K . pneu KPC + BAA-2344. Format: cell-based, Klebsiella pneumoniae. As to the method:
(§1) In order to determine the MIC values of the peptides, growth and inhibition of various bacteria were monitored after treatment with the peptides of the invention (Table B). E. coli, K. pneumoniae, P. aeruginosa and Salmonella bacteria were cultured at 37° C. and at 5×10^6 CFU/ml in a standard 96-well-plate, in Mueller Hinton broth. […] The growth of the bacteria was continuously monitored via spectrophotometry at a wave-length of 625 nm. As bacterial growth progresses, Optical density at 625 nm (OD625 nm) values increase, and where the bacterial growth is inhibited, OD625 nm values remain constant. The experimental system and parameters described herein were used to determine the MIC values of OMN3, OMN5, OMN8 and OMN9 on various bacteria strains (Table B). Using the standard MHB MIC testing for antibiotic activity

Assay [2] relates to K. pneu NDM1 BAA-2473. The format is cell-based, Klebsiella pneumoniae. The method, then:
as §1

Assay [3] concerns E. coli strains. Format: cell-based. The method, then:
as §1

For assay [4], the system named is E. coli ESBL BAA-198. The format is cell-based, Escherichia coli. As to the method: as §1
Assay [5] has as its system E. coli Sens. 25922 QC strain. Format: cell-based, Escherichia coli. As to the method:
as §1

Assay [6] has as its system E. coli CR BAA-2452. The format is cell-based, Escherichia coli. The method, then: as §1
Assay [7] deals with K. pneu Sens. 700603 QC strain. Format: cell-based, K. pneumoniae. The method, then:
as §1

The subject of assay [8] is P. aeruginosa BAA-2796. The format is cell-based, Pseudomonas aeruginosa. As to the method: as §1
The test system of assay [9] is P. aeruginosa BAA-2795. The format is cell-based, Pseudomonas aeruginosa. As to the method: as §1

With `CC[C@H](C)[C@@H]1NC(=O)CNC(=O)[C@H](CC(N)=O)NC(=O)[C@H](CCCNC(=N)N)NC(=O)[C@H]([C@@H](C)CC)NC(=O)[C@H](CC(N)=O)NC(=O)[C@H](CCCNC(=N)N)NC(=O)CNC(=O)[C@H](C(C)C)NC(=O)[C@H](CCCCN)NC(=O)[C@H](CCC(=O)O)NC(=O)[C@H]([C@@H](C)CC)NC(=O)[C@H](CCCCN)NC(=O)[C@H](CCCCN)NC(=O)[C@H](Cc2ccccc2)NC(=O)[C@H]([C@@H](C)CC)NC(=O)[C@H](CCCCN)NC(=O)[C@H](Cc2c[nH]c3ccccc23)NC(=O)[C@H](CCCCN)NC(=O)[C@@H](NC(=O)[C@@H](N)CCSC)CSSC[C@@H](C(=O)O)NC(=O)[C@H](CC(C)C)NC(=O)[C@H](C)NC(=O)[C@H](CCCCN)NC(=O)[C@H](C)NC(=O)[C@H](CCC(=O)O)NC(=O)CNC(=O)[C@H](CC(C)C)NC(=O)[C@H](C(C)C)NC(=O)[C@H](C)NC(=O)[C@H](C(C)C)NC(=O)[C@H](C)NC(=O)[C@@H]2CCCN2C(=O)CNC(=O)[C@H](C)NC(=O)[C@H](CCCCN)NC(=O)[C@H]([C@@H](C)CC)NC1=O` [OMN9] (H-MCKWKIFKKIEKVGRNIRNGIIKAGPAVAVLGEAKALC-OH; disulfide 2-38; N-terminus and C-terminus assumed), the MIC in assay [1] came to 64 µg/mL (≈ 15.4 µM); in assay [2], 32 µg/mL (≈ 7.7 µM); in assay [4], 4 µg/mL (≈ 0.963 µM); in assay [5], 8 µg/mL (≈ 1.93 µM); in [6], 8 µg/mL (≈ 1.93 µM); in [7] it was 32 µg/mL (≈ 7.7 µM). In addition, the MIC in [8] and in assay [9] was 64 µg/mL (≈ 15.4 µM) in each case. Also, in assay [3], the “MIC for E. coli strains” value fell in the range of 4 to 8 µg/mL.

Broadly, the MIC is the lowest concentration found to suppress growth.

(Values after patent publication US20200399329A1, “ANTIMICROBIAL PEPTIDES” (priority 2015, published 2020).)
